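48-hour exposure; five concentrations; linearly interpolated endpoints. The concentration for 50% growth inhibition is given as GI50. TGI marks complete inhibition of growth.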
Experiments:
Assay in all cases: NCI tumour cell line growth inhibition, 48 h
OVCAR-5 ovarian = test system: OVCAR-5 ovarian
SNB-19 CNS = test system: SNB-19 CNS
HS 578T breast = test system: HS 578T breast
MCF7 breast = test system: MCF7 breast
UACC-62 melanoma = test system: UACC-62 melanoma
HCT-15 colon = test system: HCT-15 colon
MDA-MB-231 breast = test system: MDA-MB-231 breast
HCC-2998 colon = test system: HCC-2998 colon
PC-3 prostate = test system: PC-3 prostate
SN12C renal = test system: SN12C renal
MOLT-4 leukemia = test system: MOLT-4 leukemia
HL-60(TB) leukemia = test system: HL-60(TB) leukemia
NCI-H226 lung = test system: NCI-H226 lung
RXF 393 renal = test system: RXF 393 renal
HT29 colon = test system: HT29 colon
ACHN renal = test system: ACHN renal
786-0 renal = test system: 786-0 renal
SK-MEL-5 melanoma = test system: SK-MEL-5 melanoma
UO-31 renal = test system: UO-31 renal
CCRF-CEM leukemia = test system: CCRF-CEM leukemia
SK-MEL-28 melanoma = test system: SK-MEL-28 melanoma
SW-620 colon = test system: SW-620 colon
IGROV1 ovarian = test system: IGROV1 ovarian
MDA-MB-435 = test system: MDA-MB-435

## Cc1nc2ccccc2c(/C=C/c2ccc(Cl)cc2)c1C(=O)/C=C/c1ccc(F)cc1
OVCAR-5 ovarian
  GI50: 1.63 µM
  TGI: 3.49 µM
SNB-19 CNS
  GI50: 1.54 µM
  TGI: 2.89 µM
HS 578T breast
  GI50: 2.17 µM
  TGI: 5.94 µM
MCF7 breast
  GI50: 0.781 µM
  TGI: 4.32 µM
UACC-62 melanoma
  GI50: 1.49 µM
  TGI: 2.91 µM
HCT-15 colon
  GI50: 1.06 µM
  TGI: 2.91 µM
MDA-MB-231 breast
  GI50: 1.92 µM
  TGI: 4.77 µM
HCC-2998 colon
  GI50: 1.53 µM
  TGI: 3.01 µM
PC-3 prostate
  GI50: 1.6 µM
  TGI: 3.71 µM
SN12C renal
  GI50: 1.81 µM
  TGI: 4.07 µM
MOLT-4 leukemia
  GI50: 1.19 µM
  TGI: 7.2 µM
HL-60(TB) leukemia
  GI50: 1.57 µM
  TGI: 4.13 µM
NCI-H226 lung
  GI50: 1.68 µM
  TGI: 3.57 µM
RXF 393 renal
  GI50: 1.66 µM
  TGI: 3.16 µM
HT29 colon
  GI50: 1.21 µM
  TGI: 7.54 µM
ACHN renal
  GI50: 1.51 µM
  TGI: 2.83 µM
786-0 renal
  GI50: 1.78 µM
  TGI: 3.48 µM
SK-MEL-5 melanoma
  GI50: 1.62 µM
  TGI: 2.97 µM
UO-31 renal
  GI50: 1.15 µM
  TGI: 2.36 µM
CCRF-CEM leukemia
  GI50: 1.26 µM
  TGI: > 100 µM
SK-MEL-28 melanoma
  GI50: 1.81 µM
  TGI: 3.35 µM
SW-620 colon
  GI50: 1.42 µM
  TGI: 3.43 µM
IGROV1 ovarian
  GI50: 1.15 µM
  TGI: 2.69 µM
MDA-MB-435
  GI50: 1.55 µM
  TGI: 3.21 µM

From PubChem BioAssay (NCI)
